Assay results: ChEMBL document CHEMBL3044919 (Med Chem Res, 2005)

Experiments:
[1] = Displacement of [3H]DTG from sigma-1 receptor in Cavia porcellus (guinea pig) brain membranes; set-up: species or system Membrane
[2] = target: Sigma non-opioid intracellular receptor 1 (Cavia porcellus, UniProt Q60492); experiment: Displacement of [3H](+)pentazocine from sigma-1 receptor in Cavia porcellus (guinea pig) brain membranes; set-up: species or system Membrane
Histamine H1 receptor = Histamine H1 receptor (Homo sapiens, UniProt P35367); experiment: Binding affinity to histamine H1 (unknown origin)
Chain of Histamine H1 receptor (P35367 whole entry): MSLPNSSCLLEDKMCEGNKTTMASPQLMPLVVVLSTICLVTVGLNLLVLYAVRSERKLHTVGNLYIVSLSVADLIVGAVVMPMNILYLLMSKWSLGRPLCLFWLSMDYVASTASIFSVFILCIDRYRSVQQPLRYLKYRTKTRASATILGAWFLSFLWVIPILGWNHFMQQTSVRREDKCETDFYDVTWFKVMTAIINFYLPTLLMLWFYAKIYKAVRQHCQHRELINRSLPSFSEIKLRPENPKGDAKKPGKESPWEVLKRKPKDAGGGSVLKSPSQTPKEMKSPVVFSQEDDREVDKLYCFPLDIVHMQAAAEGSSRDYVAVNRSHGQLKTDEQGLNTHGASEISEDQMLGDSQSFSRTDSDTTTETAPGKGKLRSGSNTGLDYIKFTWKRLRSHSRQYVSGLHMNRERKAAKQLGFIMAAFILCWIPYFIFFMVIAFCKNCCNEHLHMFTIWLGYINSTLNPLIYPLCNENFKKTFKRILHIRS

Cavia porcellus = species on record: Cavia porcellus; experiment: Selectivity ratio of Ki for sigma-2 receptor in Cavia porcellus (guinea pig) brain membranes to Ki for sigma-1 receptor in Cavia porcellus (guinea pig) brain membranes
[3] = target: T1, Adrenergic receptor alpha-2 (Homo sapiens, UniProt P08913+P18825+P18089); experiment: Binding affinity to alpha2 receptor (unknown origin)
T1 sequence (P08913 whole entry): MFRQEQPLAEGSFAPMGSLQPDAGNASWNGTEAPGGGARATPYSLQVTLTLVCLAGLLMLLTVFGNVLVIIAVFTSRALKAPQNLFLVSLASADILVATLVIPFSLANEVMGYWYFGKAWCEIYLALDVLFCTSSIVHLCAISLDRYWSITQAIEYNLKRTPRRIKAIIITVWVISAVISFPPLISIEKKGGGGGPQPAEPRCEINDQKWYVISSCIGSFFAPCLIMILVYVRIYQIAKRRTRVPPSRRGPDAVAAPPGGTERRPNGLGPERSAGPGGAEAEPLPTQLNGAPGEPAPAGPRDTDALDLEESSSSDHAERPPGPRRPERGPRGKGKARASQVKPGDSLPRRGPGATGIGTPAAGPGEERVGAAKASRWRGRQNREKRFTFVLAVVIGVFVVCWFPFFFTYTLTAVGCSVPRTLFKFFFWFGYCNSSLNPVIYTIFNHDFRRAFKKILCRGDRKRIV
T1 sequence (P18825 whole entry): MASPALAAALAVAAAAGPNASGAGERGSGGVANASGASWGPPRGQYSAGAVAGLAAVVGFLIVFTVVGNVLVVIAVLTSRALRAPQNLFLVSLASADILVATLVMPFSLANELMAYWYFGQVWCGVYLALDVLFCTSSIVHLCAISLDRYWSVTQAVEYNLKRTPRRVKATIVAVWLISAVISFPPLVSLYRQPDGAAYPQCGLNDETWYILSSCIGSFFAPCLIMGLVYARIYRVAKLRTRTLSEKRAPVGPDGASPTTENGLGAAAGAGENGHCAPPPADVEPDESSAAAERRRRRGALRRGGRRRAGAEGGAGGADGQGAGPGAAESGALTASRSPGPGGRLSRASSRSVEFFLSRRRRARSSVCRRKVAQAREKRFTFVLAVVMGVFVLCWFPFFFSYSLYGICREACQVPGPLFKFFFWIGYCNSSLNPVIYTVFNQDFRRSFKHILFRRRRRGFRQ
T1 sequence (P18089 whole entry): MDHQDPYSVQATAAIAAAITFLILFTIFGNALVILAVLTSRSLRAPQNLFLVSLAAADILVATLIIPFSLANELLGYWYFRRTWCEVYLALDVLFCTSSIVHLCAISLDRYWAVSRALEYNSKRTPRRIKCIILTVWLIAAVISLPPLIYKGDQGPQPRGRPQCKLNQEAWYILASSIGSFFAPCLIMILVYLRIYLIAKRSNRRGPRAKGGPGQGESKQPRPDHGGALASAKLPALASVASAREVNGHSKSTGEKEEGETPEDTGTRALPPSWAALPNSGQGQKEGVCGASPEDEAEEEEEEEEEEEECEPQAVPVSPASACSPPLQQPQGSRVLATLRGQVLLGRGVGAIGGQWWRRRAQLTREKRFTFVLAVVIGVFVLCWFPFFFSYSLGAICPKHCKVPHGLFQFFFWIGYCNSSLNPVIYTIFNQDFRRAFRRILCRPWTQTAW

[4] = target: Kappa-type opioid receptor (Homo sapiens, UniProt P41145); experiment: Binding affinity to Kappa opioid receptor (unknown origin)
Chain of Kappa-type opioid receptor (P41145 whole entry): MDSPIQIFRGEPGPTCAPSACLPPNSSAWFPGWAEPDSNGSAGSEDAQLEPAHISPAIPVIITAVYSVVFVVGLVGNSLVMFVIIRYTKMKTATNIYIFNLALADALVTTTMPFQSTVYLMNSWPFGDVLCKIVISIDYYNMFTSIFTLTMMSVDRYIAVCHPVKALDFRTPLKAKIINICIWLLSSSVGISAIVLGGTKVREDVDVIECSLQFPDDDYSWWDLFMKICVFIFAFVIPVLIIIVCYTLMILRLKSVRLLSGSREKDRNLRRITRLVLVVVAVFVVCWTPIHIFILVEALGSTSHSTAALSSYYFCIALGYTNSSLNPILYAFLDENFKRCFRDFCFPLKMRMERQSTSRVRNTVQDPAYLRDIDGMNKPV

Chain of Sigma non-opioid intracellular receptor 1 (Q60492 whole entry): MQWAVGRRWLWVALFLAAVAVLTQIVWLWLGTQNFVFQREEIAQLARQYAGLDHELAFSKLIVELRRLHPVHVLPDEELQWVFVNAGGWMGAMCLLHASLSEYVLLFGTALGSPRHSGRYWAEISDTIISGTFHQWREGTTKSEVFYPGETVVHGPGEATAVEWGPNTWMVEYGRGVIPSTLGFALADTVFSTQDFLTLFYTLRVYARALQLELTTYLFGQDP

Compound	Ki [1] [nM]	Ki [2] [nM]	Ki (Histamine H1 receptor) [nM]	Ratio Ki (Cavia porcellus)	Ki [3] [nM]	Ki [4] [nM]
CCCCc1ccc2c(c1)sc(=O)n2CCN1CCCCC1	> 1000	3.7				
CCCc1ccc2c(c1)sc(=O)n2CCN1CCCCCC1	> 1000	0.56	311	> 1000	205	
O=C(c1ccc2c(c1)sc(=O)n2CCN1CCCCC1)C1CC1	> 1000	> 1000				
CCCc1ccc2c(c1)sc(=O)n2CCCN1CCCCC1	> 1000	1.2		> 1000		
CCC(=O)c1ccc2c(c1)sc(=O)n2CCCN1CCCCC1	202	2.3		87		
CCCc1ccc2c(c1)sc(=O)n2CCCCN1CCCCC1	13	2.9		4.5		
CCCc1ccc2c(c1)OCC(=O)N2CCN1CCCCC1	> 1000	28				
CCCc1ccc2c(c1)sc(=O)n2CCN1CCCCC1	18	0.6		30		
CN(C[C@@H]1C[C@@]1(CO)c1ccccc1)C12CC3CC(CC(C3)C1)C2 (relative stereo)		1.26		2		418
CCCc1ccc2c(c1)sc(=O)n2CCN1C[C@]2(C)CCC[C@]2(C)C1	> 1000	1.4				
CCC(=O)c1ccc2c(c1)oc(=O)n2CCCN1CCCCC1	496	8.5		58		
